Data published in patent publication US4820726A, “Oxaloamino substituted fluorinated resorcinol ethers and anti-allergic and anti-inflammatory use thereof” (Ciba-Geigy Corporation, priority 1985, dated 1989).

Assays:
[1] = molecular target: phospholipase A2 from human leucocytes; assay: In vitro test for the determination of the inhibition of phospholipase A2 from human leucocytes; format: biochemical; details: enzyme from human leucocytes, 14C-oleic acid labelled E. coli phospholipids, pH 7, 37° C., 1 hour; read-out: IC50, concentration which causes an inhibition of 50% of the control activity of phospholipase A2
Source text: In vitro test for the determination of the inhibition of phospholipase A2 from human leucocytes
Neutrophilic polymorphonuclear human leucocytes are isolated, starting from "buffy coats" by multi-stage fractional sedimentation and are deep-frozen.The phospholipase A2 is extracted from the cell suspension by homogenisation with the addition of ice-cold 0.36N H2 SO4 in 2M NaCl, and the supernatant obtained after centrifugation at 10,000 g is dialysed against sodium acetate buffer, pH 4.5.
To determine the enzyme activity, the enzyme (10-30 μg of protein) is incubated in 0.1M tris/HCl buffer, pH 7, with the addition of 1 mM CaCl2 and substrate consisting of phospholipids (2 μM), radioactively labelled biosynthetically with ^14 C-oleic acid, of Escherichia coli, at 37° C. for 1 hour. The reaction is stopped by addition of Dole reagent (isopropanol/heptane/1N H2 SO4 40:10:1, volume/volume) and the ^14 C-oleic acid released selectively by phospholipase A2 is extracted. The substrate also co-extracted is removed completely by filtration of the extract through a silica gel column. The ^14 C-oleic acid in the eluate is determined by radiometry.
To determine an inhibiting effect of test substances on the phospholipase A2, these are added to the incubation batch as solutions in water, dimethylsulfoxide (final concentration in the batch up to 5 vol %) or ethanol (final concentration in the batch up to 2.5 vol %). The action potency of the test substances is expressed by the IC50, i.e. the concentration which causes an inhibition of 50% of the control activity. The IC50 is determined graphically by plotting the percentage inhibition on the ordinate against the logarithm of the concentration (μM) on the abscissa.

[2] = tested on: LTD4 -induced contractions of the guinea-pig ileum; assay: Inhibiting effect on LTD4-induced contractions of the guinea-pig ileum; format: cell-based; details: Cavia porcellus; isolated guinea-pig ileum, Tyrode solution, 38° C.; read-out: IC50, concentration which reduces LTD4 -induced contractions to 50% of the starting value
Protocol: Thus, they have an antiallergic action based on a pronounced LTD4 -(leucotriene-D4)- and PAF-(PAF-acetoether)-antagonism.
Inhibiting effect on LTD4 -induced contractions of the guinea-pig ileum
Contractions are triggered off by synthetic LTD4 (leucotriene D4, potassium salt) on ileum segments which have been taken from guinea-pigs with a body weight of 300 to 400 g, fixed in an organ bath in Tyrode solution (38° C., gassing with 95% of O2 and 5% of CO2) and loaded with […], and the degree of the contractions is recorded. The degree of inhibition of these contractions to be attributed to the LTD4 -antagonistic action of the test substance is measured. The concentration, designated the IC50, of the test substance which reduces LTD4 -induced contractions to 50% of the starting value is determined.

IC50 [1]	IC50 [2]	SMILES
13 µM	–	CC(=O)c1ccc(OCCCOc2cc(NC(=O)c3nnn[nH]3)c(C)cc2Cl)c(CCC(F)(F)F)c1O [N-{{3-{3-[4-acetyl-3-hydroxy-2-(3,3,3-trifluoropropyl)-phenoxy]-propoxy}-4-chloro-6-methyl-phenyl}}-1H-tetrazole-5-carboxamide]
12 µM	0.01 µM	CC(=O)c1ccc(OCCCOc2cc(NC(=O)c3nnn[nH]3)c(C)cc2Br)c(CCC(F)(F)F)c1O [N-{{3-{3-[4-acetyl-3-hydroxy-2-(3,3,3-trifluoropropyl)phenoxy]-propoxy}-4-bromo-6-methyl-phenyl}}-1H-tetrazole-5-carboxamide]
> 100 µM	0.087 µM	CCCc1c(OCC(O)COc2cccc(NC(=O)C(=O)O)c2C#N)ccc(C(C)=O)c1O (centres unmarked) [N-{3-[3-(4-acetyl-3-hydroxy-2-propyl-phenoxy)-2-hydroxypropoxy]-2-cyano-phenyl}-oxamic acid, reference compound]
